Data: US12685312B2, “Sulfonamide apyrase inhibitors” (Texas Crop Science, Inc., priority 2022, dated 2026)

System: apyrase
Assay: Screen for apyrase inhibitors (Method 1, in vitro phosphate-release absorbance assay)
Type: biochemical
Settings: inhibitor conc at 1 mM stock, 1 hr room temperature, absorbance 630 nm; rounded average of two assay results
Method: Apyrase inhibitors useful as enhancers of pesticidal activity are assessed using an in vitro assay. The method of Windsor, Bio Techniques 33:1024-1030 (November 2002) was used as follows Screen for Apyrase Inhibitors- 96 well plates were used for the assay: (Greiner bio-one: REF-655901-96 well, PS, F-bottom, Clear, Non-binding) Buffers: • Reaction Buffer: 60 mM Hepes; 3 mM MgCl2, 3 mM CaCl2 and 3 mM ATP (pH 6.5) • Development Buffer A: 2% aqueous ammonium molybdate • Development Buffer B: 11% ascorbic acid in 37.5% TCA in water • Stop buffer C: 2% trisodium citrate in 2% acetic acid solution in water • Add 100 μl of reaction buffer to each well. • Add 10 μl of DMSO (control) or inhibitor/compound or compounds such as […] or orthovanadate to each well. […] A blank cell indicates either <10% observed inhibition or a large difference between repetitions. In certain examples, the lack of observed inhibition is due to a lack of solubility of the compound under assay conditions, rather than a lack of apyrase inhibitory activity.

% Inhibition of Apyrase | SMILES
12% | O=C(NCCCN1CCCC1=O)c1cccc(S(=O)(=O)Nc2ccc(Br)cc2)c1 [I-46, 3-(N-(4-bromophenyl)sulfamoyl)-N-(3-(2-oxopyrrolidin-1-yl)propyl)benzamide]
12% | CC(=O)Nc1ccc(NC(=O)c2cccc(S(=O)(=O)Nc3ccc(Br)cc3)c2)cc1 [I-47, N-(4-acetamidophenyl)-3-(N-(4-bromophenyl)sulfamoyl)benzamide]
11% | O=C(NCc1ccco1)c1cccc(S(=O)(=O)Nc2ccc(Br)cc2)c1 [I-48, 3-(N-(4-bromophenyl)sulfamoyl)-N-(furan-2-ylmethyl)benzamide]
11% | Cc1ccc([N+](=O)[O-])cc1NC(=O)c1cc(S(=O)(=O)Nc2ccc(Br)cc2)c(Cl)cc1Cl [I-49, 5-(N-(4-bromophenyl)sulfamoyl)-2,4-dichloro-N-(2-methyl-5-nitrophenyl)benzamide]
10% | O=C(Nc1cccc([N+](=O)[O-])c1)c1cccc(S(=O)(=O)NCc2ccccc2)c1 [I-50, 3-(N-benzylsulfamoyl)-N-(3-nitrophenyl)benzamide]
10% | O=C(Nc1cccc([N+](=O)[O-])c1)c1cccc(S(=O)(=O)Nc2cccc(F)c2)c1 [I-51, 3-(N-(3-fluorophenyl)sulfamoyl)-N-(3-nitrophenyl)benzamide]
10% | O=C(Nc1cccc([N+](=O)[O-])c1)c1cc(S(=O)(=O)Nc2ccc(F)cc2)ccc1Cl [I-52, 2-chloro-5-(N-(4-fluorophenyl)sulfamoyl)-N-(3-nitrophenyl)benzamide]
69% | O=C(Nc1ccccc1Cl)c1cccc(S(=O)(=O)Nc2ccc(Cl)cc2)c1 [I-177, N-(2-chlorophenyl)-3-(N-(4-chlorophenyl)sulfamoyl)benzamide]
72% | Cc1cc(C)cc(NC(=O)c2cccc(S(=O)(=O)Nc3ccc4c(c3)OCO4)c2)c1 [I-179, 3-(N-(benzo[d][1,3]dioxol-5-yl)sulfamoyl)-N-(3,5-dimethylphenyl)benzamide]
75% | O=C(Nc1cccc(S(=O)(=O)N2CCCC2)c1)c1ccccc1NS(=O)(=O)c1cccc(C(F)(F)F)c1 [I-180, N-(3-(pyrrolidin-1-ylsulfonyl)phenyl)-2-((3-(trifluoromethyl)phenyl)sulfonamido) benzamide]
77% | O=C(Nc1ccc(OC(F)F)c(Cl)c1)c1cccc(S(=O)(=O)Nc2ccc3c(c2)OCO3)c1 [I-181, 3-(N-(benzo[d][1,3]dioxol-5-yl)sulfamoyl)-N-(3-chloro-4-(difluoromethoxy)phenyl)benzamide]
68% | Cc1cc(C(=O)Nc2cccc(S(=O)(=O)Nc3ccc(Br)cc3)c2)ccc1[N+](=O)[O-] [I-182, N-(3-(N-(4-bromophenyl)sulfamoyl)phenyl)-3-methyl-4-nitrobenzamide]
67% | Cc1cc(F)ccc1NC(=O)c1ccc(S(=O)(=O)Nc2cccc(C(F)(F)F)c2)cc1 [I-183, N-(4-fluoro-2-methylphenyl)-4-(N-(3-(trifluoromethyl)phenyl)sulfamoyl)benzamide]
81% | Cc1ccc(C(=O)Nc2cccc(NS(=O)(=O)c3ccccc3)c2)cc1C [I-184, 3,4-dimethyl-N-(3-(phenylsulfonamido)phenyl)benzamide]
77% | N#Cc1cccc(NC(=O)c2ccc(S(=O)(=O)Nc3ccc(Cl)cc3)cc2)c1 [I-185, 4-(N-(4-chlorophenyl)sulfamoyl)-N-(3-cyanophenyl)benzamide]
67% | N#Cc1ccc(NC(=O)c2cccc(S(=O)(=O)Nc3ccc4c(c3)OCO4)c2)cc1 [I-187, 3-(N-(benzo[d][1,3]dioxol-5-yl)sulfamoyl)-N-(4-cyanophenyl)benzamide]

% Inhibition of Apyrase | SMILES
73% | O=C(c1cccc(S(=O)(=O)Nc2ccc3c(c2)OCO3)c1)N1CCc2ccccc21 [I-188, N-(benzo[d][1,3]dioxol-5-yl)-3-(indoline-1-carbonyl)benzenesulfonamide]
70% | O=C(Nc1ccc(Br)cc1)c1cccc(S(=O)(=O)N2CCc3ccccc32)c1 [I-189, N-(4-bromophenyl)-3-(indolin-1-ylsulfonyl)benzamide]
73% | O=C(Nc1ccc(F)c(Cl)c1)c1cccc(S(=O)(=O)Nc2ccc3c(c2)OCO3)c1 [I-190, 3-(N-(benzo[d][1,3]dioxol-5-yl)sulfamoyl)-N-(3-chloro-4-fluorophenyl)benzamide]
72% | O=C(Nc1ccc(C(F)(F)F)cc1)c1cccc(S(=O)(=O)Nc2ccc3c(c2)OCO3)c1 [I-192, 3-(N-(benzo[d][1,3]dioxol-5-yl)sulfamoyl)-N-(4-(trifluoromethyl)phenyl)benzamide]
74% | O=C(Nc1ccc(F)cc1)c1ccc(S(=O)(=O)Nc2cccc(C(F)(F)F)c2)cc1 [I-193, N-(4-fluorophenyl)-4-(N-(3-(trifluoromethyl)phenyl)sulfamoyl)benzamide]
74% | Cc1ccc(C(=O)Nc2cccc(S(=O)(=O)Nc3ccc(Br)cc3)c2)cc1 [I-194, N-(3-(N-(4-bromophenyl)sulfamoyl)phenyl)-4-methylbenzamide]
70% | O=C(CNC(=O)c1ccc(Br)cc1)Nc1cccc(S(=O)(=O)Nc2ccc(Br)cc2)c1 [I-195, 4-bromo-N-(2-((3-(N-(4-bromophenyl)sulfamoyl)phenyl)amino)-2-oxoethyl)benzamide]
74% | N#Cc1cccc(S(=O)(=O)Nc2cccc(C(=O)Nc3cccc(C(F)(F)F)c3)c2)c1 [I-196, 3-((3-cyanophenyl)sulfonamido)-N-(3-(trifluoromethyl)phenyl)benzamide]
70% | O=C(Nc1cccc(Cl)c1)c1cccc(S(=O)(=O)Nc2ccc3c(c2)OCO3)c1 [I-197, 3-(N-(benzo[d][1,3]dioxol-5-yl)sulfamoyl)-N-(3-chlorophenyl)benzamide]
66% | O=C(Nc1cccc(S(=O)(=O)Nc2ccc(Br)cc2)c1)c1ccc2ncsc2c1 [I-199, N-(3-(N-(4-bromophenyl)sulfamoyl)phenyl)benzo[d]thiazole-6-carboxamide]
78% | O=C(Nc1ccc(OC(F)(F)F)cc1)c1cccc(S(=O)(=O)Nc2ccc3c(c2)OCO3)c1 [I-200, 3-(N-(benzo[d][1,3]dioxol-5-yl)sulfamoyl)-N-(4-(trifluoromethoxy)phenyl)benzamide]
78% | N#Cc1cccc(NC(=O)c2ccc(S(=O)(=O)Nc3ccccc3Cl)cc2)c1 [I-202, 4-(N-(2-chlorophenyl)sulfamoyl)-N-(3-cyanophenyl)benzamide]
72% | O=C(Nc1ccc(F)c([N+](=O)[O-])c1)c1ccc(S(=O)(=O)Nc2ccc(Cl)cc2)cc1 [I-203, 4-(N-(4-chlorophenyl)sulfamoyl)-N-(4-fluoro-3-nitrophenyl)benzamide]
69% | Cc1ccc(NS(=O)(=O)c2ccc(C(=O)Nc3cccc(S(=O)(=O)N4CCCC4)c3)cc2)cc1 [I-204, N-(3-(pyrrolidin-1-ylsulfonyl)phenyl)-4-(N-(p-tolyl)sulfamoyl)benzamide]
74% | O=C(CNC(=O)c1ccccc1F)Nc1cccc(S(=O)(=O)Nc2ccc(Br)cc2)c1 [I-205, N-(2-((3-(N-(4-bromophenyl)sulfamoyl)phenyl)amino)-2-oxoethyl)-2-fluorobenzamide]
